Molecules are shown by their SMILES. Structures can show the parent of a compound that is named as a salt.

`COCOC` [dimethoxymethane]: the flash point is -18.00 °C.

For the compound `COC(=O)CCC(=O)OC` [dimethyl butanedioate], the flash point was 85.00 °C.

`COC(=O)CCCC(=O)OC` [dimethyl pentanedioate]: the flash point was 103.00 °C.

For `COS(=O)(=O)OC` [dimethyl sulfate], the flash point worked out at 83.00 °C.

In turn, `CN(C)C(=S)SSC(=S)N(C)C` [dimethylcarbamothioylsulfanyl N,N-dimethylcarbamodithioate] registered a flash point of 138.00 °C.

The compound `CN(C)C#N` [dimethylcyanamide] displayed a flash point of 71.00 °C.

`CCCCCCCCOP(=O)(O)OCCCCCCCC` [dioctyl hydrogen phosphate] had a flash point of 196.00 °C.

For `CCCCCCCCCCCCCCCCCCCCCC` [docosane], the flash point was determined as 113.00 °C.

As for `CCCCCCCCCCCCN` [dodecan-1-amine], the flash point came to 178.00 °C.

As to `CCCCCCCCCCCC(=O)O` [dodecanoic acid], the flash point turned out to be 113.00 °C.

Take `CCO` [ethanol]: the flash point stood at 13.00 °C.

As for `C=C` [ethene], the flash point is -136.00 °C.

`CCOc1ccccc1` [ethoxybenzene]: the flash point stood at 63.00 °C.

`CCOC(=O)CBr` [ethyl 2-bromoacetate] gave a flash point of 48.00 °C.

In turn, `C=C(C#N)C(=O)OCC` [ethyl 2-cyanoprop-2-enoate] displayed a flash point of 82.00 °C.

In the case of `CCOC(=O)C(C)O` (stereo unspecified) [ethyl 2-hydroxypropanoate], the flash point amounted to 46.00 °C.

On to `C=C(C)C(=O)OCC` [ethyl 2-methylprop-2-enoate], for which the flash point was found to be 16.00 °C.

`CCOC(=O)CC(C)O` (stereo unspecified) [ethyl 3-hydroxybutanoate] returned a flash point of 64.00 °C.

Compound `CCOC(=O)C#Cc1ccccc1` [ethyl 3-phenylprop-2-ynoate] came in with a flash point of 113.00 °C.

Compound `CCOS(=O)(=O)c1ccc(C)cc1` [ethyl 4-methylbenzenesulfonate] yielded a flash point of 158.00 °C.

Turning to `CCOC(=O)NC` [ethyl N-methylcarbamate], the flash point is 73.00 °C.

`CCCC(=O)OCC` [ethyl butanoate] came in with a flash point of 24.00 °C.

For `CCOC(N)=O` [ethyl carbamate], the flash point worked out at 92.00 °C.

`CCON=O` [ethyl nitrite]: the flash point is -35.00 °C.

On to `CCOC(=O)CC` [ethyl propanoate], for which the flash point came out at 12.00 °C.

Compound `CCC1CCCCC1` [ethylcyclohexane] gave a flash point of 35.00 °C.

Consider `CCSCC` [ethylsulfanylethane], for which the flash point was -10.00 °C.

`c1ccc2c(c1)-c1cccc3cccc-2c13` [fluoranthene] displayed a flash point of 198.00 °C.

Regarding `O=Cc1ccco1` [furan-2-carbaldehyde], the flash point came out at 60.00 °C.

`OCc1ccco1` [furan-2-ylmethanol] gave a flash point of 75.00 °C.

Consider `CC(=O)OCc1ccco1` [furan-2-ylmethyl acetate], for which the flash point came out at 66.00 °C.

Consider `CCCCCCCCCCCCCCCCCCCCC` [henicosane], for which the flash point amounted to 113.00 °C.

`CCCCCC(C)O` (stereo unspecified) [heptan-2-ol] returned a flash point of 71.00 °C.

As to `CCCCCC(C)=O` [heptan-2-one], the flash point came out at 39.00 °C.

`CCCCC(=O)CC` [heptan-3-one] yielded a flash point of 46.00 °C.

Turning to `CCCC(=O)CCC` [heptan-4-one], the flash point turned out to be 49.00 °C.

For `CCCCCCC` [heptane], the flash point is -4.00 °C.

Compound `CCCCCCCOC(C)=O` [heptyl acetate] came in with a flash point of 68.00 °C.

For `CC=CC=CC(=O)O` [hexa-2,4-dienoic acid], the flash point was 127.00 °C.

For `CCCCCCCCCCCCCCCCN` [hexadecan-1-amine], the flash point was 141.00 °C.

For `CCCCCCCCCCCCCCCC` [hexadecane], the flash point was determined as 135.00 °C.

The values are drawn from a flash point compilation (Sun et al. 2020).
